# According to the supplement of paper PMC9780213:
# Experiments:
# Details in all cases: treatment time: 24 h
# U2OS = assay: cell count relative to DMSO control (panel A, nuclei/RNA/PMG/mitochondria stain) (fraction of control); higher = more cells (less toxicity)
# Method: (§1)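 U2OS-derived cells in 384-well plates were treated for 24 h with a 7-point 2-fold dilution series (top dose 20 µM for most compounds; final max DMSO 1%), then fixed, stained in four marker panels and imaged on a Cellomics ArrayScan. Cell count per treatment (three replicate plates merged) is given as a fraction of DMSO control. Panel A used parental U2OS, panel B U2OS-mOrange2-Peroxisome, panel C1 U2OS-LMNB1-TUBA1B-ACTB (DRAQ5 nuclei).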
# U2OS-LMNB1-TUBA1B-ACTB = assay: cell count relative to DMSO control (panel C1, DRAQ5/ER stain) (fraction of control); higher = more cells (less toxicity)
# Method: as §1
# U2OS-mOrange2-Peroxisome = assay: cell count relative to DMSO control (panel B, lysosome/peroxisome/lipid stain) (fraction of control); higher = more cells (less toxicity)
# Method: as §1
SMILES,cell count (U2OS; 0.3125 µM),cell count (U2OS; 0.625 µM),cell count (U2OS; 1.25 µM),cell count (U2OS; 2.5 µM),cell count (U2OS; 5 µM),cell count (U2OS; 10 µM),cell count (U2OS; 20 µM),cell count (U2OS-LMNB1-TUBA1B-ACTB; 0.3125 µM),cell count (U2OS-LMNB1-TUBA1B-ACTB; 0.625 µM),cell count (U2OS-LMNB1-TUBA1B-ACTB; 1.25 µM),cell count (U2OS-LMNB1-TUBA1B-ACTB; 2.5 µM),cell count (U2OS-LMNB1-TUBA1B-ACTB; 5 µM),cell count (U2OS-LMNB1-TUBA1B-ACTB; 10 µM),cell count (U2OS-LMNB1-TUBA1B-ACTB; 20 µM),cell count (U2OS-mOrange2-Peroxisome; 0.3125 µM),cell count (U2OS-mOrange2-Peroxisome; 0.625 µM),cell count (U2OS-mOrange2-Peroxisome; 1.25 µM),cell count (U2OS-mOrange2-Peroxisome; 2.5 µM),cell count (U2OS-mOrange2-Peroxisome; 5 µM),cell count (U2OS-mOrange2-Peroxisome; 10 µM),cell count (U2OS-mOrange2-Peroxisome; 20 µM),cell count (U2OS; 0.07812 µM),cell count (U2OS; 0.15625 µM),cell count (U2OS-LMNB1-TUBA1B-ACTB; 0.07812 µM),cell count (U2OS-LMNB1-TUBA1B-ACTB; 0.15625 µM),cell count (U2OS-mOrange2-Peroxisome; 0.07812 µM),cell count (U2OS-mOrange2-Peroxisome; 0.15625 µM)
CC[C@]1(O)C[C@H]2CN(CCc3c([nH]c4ccccc34)[C@@](C(=O)OC)(c3cc4c(cc3OC)N(C=O)[C@H]3[C@@](O)(C(=O)OC)[C@H](OC(C)=O)[C@]5(CC)C=CCN6CC[C@]43[C@@H]65)C2)C1 [vincristine],0.508,0.506,0.522,0.496,0.465,0.486,0.456,0.617,0.651,0.606,0.557,0.576,0.58,0.59,0.728,0.834,0.678,0.793,0.752,0.769,0.685,–,–,–,–,–,–
CC(=O)O[C@H]1C(=O)[C@@]2(C)[C@H]([C@H](OC(=O)c3ccccc3)[C@]3(O)C[C@H](OC(=O)[C@H](O)[C@@H](NC(=O)c4ccccc4)c4ccccc4)C(C)=C1C3(C)C)[C@]1(OC(C)=O)CO[C@@H]1C[C@@H]2O [paclitaxel],0.956,1.05,0.97,0.928,1.04,1,1,1.04,1.09,1.08,1.05,0.93,1.14,0.992,0.878,0.695,0.709,0.787,0.849,0.843,1.14,–,–,–,–,–,–
CC(C)n1nc(-c2ccc3oc(N)nc3c2)c2c(N)ncnc21 [MLN0128],0.521,0.481,0.454,0.408,0.204,–,–,0.7,0.698,0.614,0.557,0.271,–,–,0.42,0.439,0.393,0.301,0.0428,–,–,0.646,0.584,0.774,0.748,0.578,0.426
COc1cccc2c1C(=O)c1c(O)c3c(c(O)c1C2=O)C[C@@](O)(C(C)=O)C[C@@H]3O[C@H]1C[C@H](N)[C@H](O)[C@H](C)O1 [daunorubicin],0.96,0.829,0.457,0.376,0.183,–,–,1.02,0.912,0.645,0.613,0.472,–,–,0.527,0.605,0.618,0.398,0.152,–,–,0.92,0.928,0.953,0.99,0.537,0.529
COc1cc(-n2c(=S)[nH]c3ccccc3c2=O)c(Cl)cc1Cl [mdivi-1],1.02,0.927,1.04,1.01,1,0.643,1.04,1.02,1.01,1.08,1.03,1.02,0.74,1.09,0.787,0.837,0.803,1.03,1.03,0.618,0.921,–,–,–,–,–,–
COc1ccc(C2CNC(=O)C2)cc1OC1CCCC1 (stereo not drawn) [rolipram],1.04,1.07,0.964,0.96,0.915,1,0.959,0.979,1.14,0.963,1.03,1.01,1.02,1.01,0.884,0.894,1,0.96,1.13,0.726,1,–,–,–,–,–,–
CO[C@H]1C[C@@H]2CC[C@@H](C)[C@@](O)(O2)C(=O)C(=O)N2CCCC[C@H]2C(=O)O[C@H]([C@H](C)C[C@@H]2CC[C@@H](O)[C@H](OC)C2)CC(=O)[C@H](C)/C=C(\C)[C@@H](O)[C@@H](OC)C(=O)[C@H](C)C[C@H](C)/C=C/C=C/C=C/1C [sirolimus],1.08,0.8,0.967,1.05,0.947,0.766,0.755,1.12,0.947,1.07,0.944,0.94,0.711,0.745,0.81,0.644,0.677,0.521,0.453,0.451,0.372,–,–,–,–,–,–
CCCCCCCCCCCCCCCCCCOP(=O)([O-])OC1CC[N+](C)(C)CC1 [perifosine],0.989,1.07,1.02,0.99,0.979,0.592,0.285,1.11,1.15,1.09,0.996,1.01,0.753,0.363,0.846,0.987,0.869,0.928,1.12,0.704,0.364,–,–,–,–,–,–
